Test results: PubChem BioAssay AID1963963 (Molecular Pharmacology Branch, DTP, NCI, 2024)

Tested on: 958667-338-R-J2-PDC tumor spheroids viability
Assay: Anticancer human tumor 958667-338-R-J2-PDC patient-derived colon adenocarcinoma cell line growth inhibition [PI3K]
Conditions: spheroids with HUVEC and MSC; for IC50: curve of first compound; for viability, T/C: stronger effect = lower value
Outline: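 Combination activity was assessed by viability in multicellular tumor spheroids carrying HUVEC and MSC components. Agents were tested with PI3K inhibitors from a Cmax-based top dose (or 10 microM) downward in half-log increments.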

[1] = second compound 0.00316 µM, first compound 0.000316 µM
[2] = second compound 0.00316 µM, first compound 0.001 µM
[3] = second compound 0.00316 µM, first compound 0.00316 µM
[4] = second compound 0.00316 µM, first compound 0.01 µM
[5] = second compound 0.00316 µM, first compound 0.0316 µM
[6] = second compound 0.00316 µM, first compound 0.1 µM
[7] = second compound 0.01 µM, first compound 0.000316 µM
[8] = second compound 0.01 µM, first compound 0.001 µM
[9] = second compound 0.01 µM, first compound 0.00316 µM
[10] = second compound 0.01 µM, first compound 0.01 µM
[11] = second compound 0.01 µM, first compound 0.0316 µM
[12] = second compound 0.01 µM, first compound 0.1 µM
[13] = second compound 0.0316 µM, first compound 0.000316 µM
[14] = second compound 0.0316 µM, first compound 0.001 µM
[15] = second compound 0.0316 µM, first compound 0.00316 µM
[16] = second compound 0.0316 µM, first compound 0.01 µM
[17] = second compound 0.0316 µM, first compound 0.0316 µM
[18] = second compound 0.0316 µM, first compound 0.1 µM
[19] = second compound 0.1 µM, first compound 0.000316 µM
[20] = second compound 0.1 µM, first compound 0.001 µM
[21] = second compound 0.1 µM, first compound 0.00316 µM
[22] = second compound 0.1 µM, first compound 0.01 µM
[23] = second compound 0.1 µM, first compound 0.0316 µM
[24] = second compound 0.1 µM, first compound 0.1 µM
[25] = second compound 0.316 µM, first compound 0.000316 µM
[26] = second compound 0.316 µM, first compound 0.001 µM
[27] = second compound 0.316 µM, first compound 0.00316 µM
[28] = second compound 0.316 µM, first compound 0.01 µM
[29] = second compound 0.316 µM, first compound 0.0316 µM
[30] = second compound 0.316 µM, first compound 0.1 µM
[31] = second compound 1 µM, first compound 0.000316 µM
[32] = second compound 1 µM, first compound 0.001 µM
[33] = second compound 1 µM, first compound 0.00316 µM
[34] = second compound 1 µM, first compound 0.01 µM
[35] = second compound 1 µM, first compound 0.0316 µM
[36] = second compound 1 µM, first compound 0.1 µM
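Note: spheroids exposed to compounds for seven days before readout.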

CC(=O)c1c(C)c2cnc(Nc3ccc(N4CCNCC4)cn3)nc2n(C2CCCC2)c1=O + COc1c(OCCCN2CCOCC2)ccc2c3n(c(=NC(=O)c4cnc(N)nc4)nc12)CCN3 was tested, and the IC50 (second compound 0.00316 µM) was greater than 100 nM, the IC50 (second compound 0.01 µM) was greater than 100 nM and the IC50 (second compound 0.0316 µM) was greater than 100 nM. For the same compound, the IC50 (second compound 0.1 µM) was greater than 100 nM, the IC50 (second compound 0.316 µM) was less than 0.316 nM and the IC50 (second compound 1 µM) was less than 0.316 nM. The viability, T/C [1] was 103%, the viability, T/C [2] was 101% and the viability, T/C [3] was 97.2%. It also gave a viability, T/C [4] of 98.2%, a viability, T/C [5] of 108% and a viability, T/C [6] of 62.8%. The viability, T/C [7] was 82.9%, the viability, T/C [8] was 67.7% and the viability, T/C [9] was 90.8%. The viability, T/C [10] was 79.1%, the viability, T/C [11] was 83.3% and the viability, T/C [12] was 69.9%. For the same compound, the viability, T/C [13] was 75.7%, the viability, T/C [14] was 94.8% and the viability, T/C [15] was 75.5%. The viability, T/C [16] was 56.7%, the viability, T/C [17] was 67.3% and the viability, T/C [18] was 56.3%. For the same compound, the viability, T/C [19] was 64.9%, the viability, T/C [20] was 61.8% and the viability, T/C [21] was 51.5%. It also gave a viability, T/C [22] of 70.2%, a viability, T/C [23] of 62.7% and a viability, T/C [24] of 50.7%. The viability, T/C [25] was 37.2%, the viability, T/C [26] was 42.5% and the viability, T/C [27] was 49.1%. The viability, T/C [28] was 42.9%, the viability, T/C [29] was 35% and the viability, T/C [30] was 26.6%. It also gave a viability, T/C [31] of 17.8%, a viability, T/C [32] of 20.3% and a viability, T/C [33] of 18%. The viability, T/C [34] was 20.3%, the viability, T/C [35] was 22.3% and the viability, T/C [36] was 17.2%.

With CC(C)n1nc(-c2ccc3oc(N)nc3c2)c2c(N)ncnc21 + COc1c(OCCCN2CCOCC2)ccc2c3n(c(=NC(=O)c4cnc(N)nc4)nc12)CCN3 the IC50 (second compound 0.00316 µM) was 77.8 nM, the IC50 (second compound 0.01 µM) was 60.9 nM and the IC50 (second compound 0.0316 µM) was 22.8 nM. For the same compound, the IC50 (second compound 0.1 µM) was 9.88 nM, the IC50 (second compound 0.316 µM) was less than 0.316 nM and the IC50 (second compound 1 µM) was less than 0.316 nM. The viability, T/C [1] was 88.1%, the viability, T/C [2] was 112% and the viability, T/C [3] was 99.2%. The viability, T/C [4] was 103%, the viability, T/C [5] was 77.4% and the viability, T/C [6] was 42.4%. It also gave a viability, T/C [7] of 73.6%, a viability, T/C [8] of 70% and a viability, T/C [9] of 85.2%. The viability, T/C [10] was 71.6%, the viability, T/C [11] was 74.7% and the viability, T/C [12] was 31.3%. For the same compound, the viability, T/C [13] was 69.6%, the viability, T/C [14] was 74.5% and the viability, T/C [15] was 70%. It also gave a viability, T/C [16] of 58.1%, a viability, T/C [17] of 47% and a viability, T/C [18] of 25.2%. The viability, T/C [19] was 67.3%, the viability, T/C [20] was 66.1% and the viability, T/C [21] was 62%. It also gave a viability, T/C [22] of 44.2%, a viability, T/C [23] of 41% and a viability, T/C [24] of 21.3%. It also gave a viability, T/C [25] of 41.4%, a viability, T/C [26] of 37% and a viability, T/C [27] of 34.7%. The viability, T/C [28] was 33.1%, the viability, T/C [29] was 25.1% and the viability, T/C [30] was 14.7%. For the same compound, the viability, T/C [31] was 17.2%, the viability, T/C [32] was 16.5% and the viability, T/C [33] was 13.6%. It also gave a viability, T/C [34] of 17.5%, a viability, T/C [35] of 15.8% and a viability, T/C [36] of 11.5%.

In the case of CCCS(=O)(=O)Nc1ccc(F)c(C(=O)c2c[nH]c3ncc(-c4ccc(Cl)cc4)cc23)c1F + COc1c(OCCCN2CCOCC2)ccc2c3n(c(=NC(=O)c4cnc(N)nc4)nc12)CCN3, the IC50 (second compound 0.00316 µM) is reported as 5880 nM, the IC50 (second compound 0.01 µM) is reported as 6020 nM and the IC50 (second compound 0.0316 µM) is reported as 4970 nM. The IC50 (second compound 0.1 µM) was 4080 nM, the IC50 (second compound 0.316 µM) was less than 31.6 nM and the IC50 (second compound 1 µM) was less than 31.6 nM. For the same compound, the viability, T/C [5] was 126%, the viability, T/C [6] was 93.4% and the viability, T/C (second compound 0.00316 µM, first compound 0.316 µM) was 94.4%. The viability, T/C (second compound 0.00316 µM, first compound 1 µM) was 109%, the viability, T/C (second compound 0.00316 µM, first compound 3.16 µM) was 99.5% and the viability, T/C (second compound 0.00316 µM, first compound 10 µM) was 7.46%. It also gave a viability, T/C [11] of 89.1%, a viability, T/C [12] of 93.7% and a viability, T/C (second compound 0.01 µM, first compound 0.316 µM) of 111%. For the same compound, the viability, T/C (second compound 0.01 µM, first compound 1 µM) was 84.8%, the viability, T/C (second compound 0.01 µM, first compound 3.16 µM) was 110% and the viability, T/C (second compound 0.01 µM, first compound 10 µM) was 12.4%. It also gave a viability, T/C [17] of 63%, a viability, T/C [18] of 67.5% and a viability, T/C (second compound 0.0316 µM, first compound 0.316 µM) of 74.5%. It also gave a viability, T/C (second compound 0.0316 µM, first compound 1 µM) of 74.5%, a viability, T/C (second compound 0.0316 µM, first compound 3.16 µM) of 103% and a viability, T/C (second compound 0.0316 µM, first compound 10 µM) of 8.73%. The viability, T/C [23] was 67.4%, the viability, T/C [24] was 52.2% and the viability, T/C (second compound 0.1 µM, first compound 0.316 µM) was 61.7%. The viability, T/C (second compound 0.1 µM, first compound 1 µM) was 61.8%, the viability, T/C (second compound 0.1 µM, first compound 3.16 µM) was 63.2% and the viability, T/C (second compound 0.1 µM, first compound 10 µM) was 10.3%. For the same compound, the viability, T/C [29] was 31.6%, the viability, T/C [30] was 49.6% and the viability, T/C (second compound 0.316 µM, first compound 0.316 µM) was 38.3%. For the same compound, the viability, T/C (second compound 0.316 µM, first compound 1 µM) was 32.2%, the viability, T/C (second compound 0.316 µM, first compound 3.16 µM) was 37.5% and the viability, T/C (second compound 0.316 µM, first compound 10 µM) was 6.35%. The viability, T/C [35] was 19%, the viability, T/C [36] was 23.5% and the viability, T/C (second compound 1 µM, first compound 0.316 µM) was 16.7%. The viability, T/C (second compound 1 µM, first compound 1 µM) was 20.8%, the viability, T/C (second compound 1 µM, first compound 3.16 µM) was 19.2% and the viability, T/C (second compound 1 µM, first compound 10 µM) was 5.1%.
